# Assay results published in patent US20150031668A1, “CHROMAN DERIVATIVES AS TRPM8 INHIBITORS” (AMGEN INC., priority 2013, published 2015).
# Structures can show the parent of a compound that is named as a salt.
# Target: T1, human TRPM8 (Homo sapiens, UniProt Q7Z2W7)
# T1 construct: expressed in transfected cells; host or cells: Chinese hamster ovary (CHO) cells, T-REx tetracycline-inducible expression system (Invitrogen); co-transfected with pcDNA3.1 aequorin
# Test: Luminescence readout assay for measuring intracellular calcium (aequorin, CHO cells expressing human TRPM8; icilin, L-menthol or cold activation)
# Format: cell-based
# Conditions: CHO cells expressing human TRPM8, icilin activation (1 μM), aequorin luminescence; read-out: hTRPM8 IC50
# Description: Luminescence Readout Assay for Measuring Intracellular Calcium
# A stable Chinese hamster ovary cell line expressing human TRPM8 was generated using tetracycline inducible T-REx™ expression system from Invitrogen, Inc. (Carlsbad, Calif.). […] Twenty four hours before the assay, cells were seeded in 96-well plates and TRPM8 expression was induced with 0.5 μg/ml tetracycline. On the day of the assay, culture media was removed and cells were incubated with assay buffer
# Potential antagonists were added 2.5 min prior to the addition of agonist, 1 μM icilin, 100 μM L-menthol, or 1 min prior to the addition of cold buffer (<10° C.). The luminescence was measured by a CCD camera based FLASH-luminometer built by Amgen, Inc. A cooling device attached to FLASH luminometer was used for cold activation.
# T1 sequence (Q7Z2W7 whole entry): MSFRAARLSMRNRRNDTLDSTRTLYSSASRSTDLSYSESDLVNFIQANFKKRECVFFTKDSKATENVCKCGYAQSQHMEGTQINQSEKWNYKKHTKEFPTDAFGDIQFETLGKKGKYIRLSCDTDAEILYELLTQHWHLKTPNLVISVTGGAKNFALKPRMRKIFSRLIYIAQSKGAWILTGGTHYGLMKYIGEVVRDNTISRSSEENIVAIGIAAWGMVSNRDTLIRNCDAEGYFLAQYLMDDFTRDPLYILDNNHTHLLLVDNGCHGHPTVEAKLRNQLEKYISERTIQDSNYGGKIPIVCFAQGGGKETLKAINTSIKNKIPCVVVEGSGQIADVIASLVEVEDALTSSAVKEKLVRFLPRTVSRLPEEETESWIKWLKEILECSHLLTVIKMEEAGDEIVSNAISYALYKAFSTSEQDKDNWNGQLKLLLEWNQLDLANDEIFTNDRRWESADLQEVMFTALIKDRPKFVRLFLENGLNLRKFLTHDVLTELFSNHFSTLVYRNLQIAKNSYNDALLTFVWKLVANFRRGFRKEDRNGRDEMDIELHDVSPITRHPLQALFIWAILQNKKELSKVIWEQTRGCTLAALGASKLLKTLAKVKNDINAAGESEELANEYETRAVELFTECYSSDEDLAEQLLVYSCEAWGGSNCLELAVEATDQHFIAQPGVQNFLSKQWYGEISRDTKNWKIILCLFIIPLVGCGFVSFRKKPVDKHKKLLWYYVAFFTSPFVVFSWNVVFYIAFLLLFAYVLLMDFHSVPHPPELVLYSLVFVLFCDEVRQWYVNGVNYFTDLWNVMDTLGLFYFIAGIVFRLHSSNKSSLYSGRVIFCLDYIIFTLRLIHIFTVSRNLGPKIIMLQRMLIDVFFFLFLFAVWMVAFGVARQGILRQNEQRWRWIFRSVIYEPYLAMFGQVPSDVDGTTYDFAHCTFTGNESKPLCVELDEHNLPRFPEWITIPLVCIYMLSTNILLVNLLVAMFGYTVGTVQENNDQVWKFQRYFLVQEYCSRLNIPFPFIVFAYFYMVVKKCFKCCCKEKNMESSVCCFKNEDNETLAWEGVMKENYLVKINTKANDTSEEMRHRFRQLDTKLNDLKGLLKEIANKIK
row,IC50 [nM],Structure (SMILES)
1,15,"O=C(N[C@]1(c2ccc(OC(F)(F)F)cc2)CCOc2cccnc21)c1ccc2cnccc2c1 [Example 250, (S)-N-(4-(4-(trifluoromethoxy)phenyl)-3,4-dihydro-2H-pyrano[3,2-b]pyridin-4-yl)isoquinoline-6-carboxamide formate]"
2,12,"O=C(N[C@]1(c2ccc(OC(F)(F)F)c(F)c2)CCOc2cccnc21)c1ccc(C(=O)O)c(C2CC2)c1 [Example 300, (S)-2-cyclopropyl-4-((4-(3-fluoro-4-(trifluoromethoxy)phenyl)-3,4-dihydro-2H-pyrano[3,2-b]pyridin-4-yl)carbamoyl)benzoic acid]"
3,26,"Cc1cc(C(=O)N[C@]2(c3ccc(OC(F)(F)F)c(F)c3)CCOc3cccnc32)ccc1C(=O)NC(C)(C)C [Example 297, (S)—N1-(tert-butyl)-N4-(4-(3-fluoro-4-(trifluoromethoxy)phenyl)-3,4-dihydro-2H-pyrano[3,2-b]pyridin-4-yl)-2-methylterephthalamide]"
4,70,"COc1cc(C(=O)N[C@]2(c3ccc(OC(F)(F)F)c(F)c3)CCOc3cccnc32)ccc1C(=O)O [Example 337, (S)-4-((4-(3-fluoro-4-(trifluoromethoxy)phenyl)-3,4-dihydro-2H-pyrano[3,2-b]pyridin-4-yl)carbamoyl)-2-methoxybenzoic acid]"
5,7,"Cn1ncc2cc(C(=O)N[C@]3(c4ccc(OC(F)(F)F)cc4)CCOc4cccnc43)ccc21 [Example 262, (S)-1-methyl-N-(4-(4-(trifluoromethoxy)phenyl)-3,4-dihydro-2H-pyrano[3,2-b]pyridin-4-yl)-1H-indazole-5-carboxamide formate]"
6,118,"O=C(N[C@]1(c2ccc(OC(F)(F)F)c(F)c2)CCOc2cccnc21)c1ccc2cc(C(=O)O)[nH]c2c1 [Example 325, (S)-6-((4-(3-fluoro-4-(trifluoro-methoxy)phenyl)-3,4-dihydro-2H-pyrano[3,2-b]pyridin-4-yl)carbamoyl)-1H-indole-2-carboxylic acid]"
7,32,"Cn1c(C(=O)N[C@]2(c3ccc(OC(F)(F)F)cc3)CCOc3cccnc32)nc2ccccc21 [Example 260, (S)-1-methyl-N-(4-(4-(trifluoromethoxy)phenyl)-3,4-dihydro-2H-pyrano[3,2-b]pyridin-4-yl)-1H-benzo[d]imidazole-2-carboxamide formate]"
8,631,"O=C(NS(=O)(=O)c1ccccc1)c1ccc(C(=O)N[C@]2(c3ccc(OC(F)(F)F)c(F)c3)CCOc3cccnc32)nc1 [Example 307, (S)—N2-(4-(3-fluoro-4-(trifluoromethoxy)phenyl)-3,4-dihydro-2H-pyrano[3,2-b]pyridin-4-yl)-N5-(phenylsulfonyl)pyridine-2,5-dicarboxamide 2,2,2-trifluoroacetate]"
9,16,"Cc1nc(-c2ccc(C(=O)N[C@]3(c4ccc(OC(F)(F)F)cc4)CCOc4cccnc43)cc2)no1 [Example 276, (S)-4-(5-methyl-1,2,4-oxadiazol-3-yl)-N-(4-(4-(trifluoromethoxy)phenyl)-3,4-dihydro-2H-pyrano[3,2-b]pyridin-4-yl)benzamide formate]"
10,85,"O=C(N[C@]1(c2ccc(OC(F)(F)F)cc2)CCOc2cccnc21)c1cccc(N2CCCC2=O)c1 [Example 277, (S)-3-(2-oxopyrrolidin-1-yl)-N-(4-(4-(trifluoromethoxy)phenyl)-3,4-dihydro-2H-pyrano[3,2-b]pyridin-4-yl)benzamide formate]"
11,56,"O=C(N[C@]1(c2ccc(OC(F)(F)F)cc2)CCOc2cccnc21)c1ccc2ccccc2n1 [Example 251, (S)-N-(4-(4-(trifluoromethoxy)phenyl)-3,4-dihydro-2H-pyrano[3,2-b]pyridin-4-yl)quinoline-2-carboxamide formate]"
12,45,"Cc1cc(C(=O)N[C@]2(c3ccc(C(F)(F)F)cc3)CCOc3cccnc32)ccc1C(=O)O [Example 288, (S)-2-methyl-4-((4-(4-(trifluoromethyl)phenyl)-3,4-dihydro-2H-pyrano[3,2-b]pyridin-4-yl)carbamoyl)benzoic acid]"

# The remaining lines, values behind:
row,Structure (SMILES),IC50 [nM]
1,"CC(=O)c1ccc(C(=O)N[C@]2(c3ccc(OC(F)(F)F)c(F)c3)CCOc3cccnc32)cc1 [Example 156, (S)-4-acetyl-N-(4-(3-fluoro-4-(trifluoromethoxy)phenyl)-3,4-dihydro-2H-pyrano[3,2-b]pyridin-4-yl)benzamide]",8
2,"COc1ccncc1-c1ccc([C@@]2(NC(=O)c3ccc(F)cc3)CCOc3cccnc32)cc1 [Example 130, (S)-4-fluoro-N-(4-(4-(4-methoxypyridin-3-yl)phenyl)-3,4-dihydro-2H-pyrano[3,2-b]pyridin-4-yl)benzamide]",1000
3,"O=C(N[C@]1(c2ccc(OC(F)(F)F)c(F)c2)CCOc2cccnc21)c1ccc(Br)cn1 [Example 206, (S)-5-bromo-N-(4-(3-fluoro-4-(trifluoromethoxy)phenyl)-3,4-dihydro-2H-pyrano[3,2-b]pyridin-4-yl) picolinamide]",13
4,"Cn1ccc(C(=O)N[C@]2(c3ccc(OC(F)(F)F)cc3)CCOc3cccnc32)n1 [Example 227, (S)-1-methyl-N-(4-(4-(trifluoromethoxy)phenyl)-3,4-dihydro-2H-pyrano[3,2-b]pyridin-4-yl)-1H-pyrazole-3-carboxamide formate]",58.7
5,"Cn1ncc2ccc(C(=O)N[C@]3(c4ccc(C(F)(F)F)cc4)CCOc4cccnc43)cc21 [Example 38, (S)-1-methyl-N-(4-(4-(trifluoromethyl)phenyl)-3,4-dihydro-2H-pyrano[3,2-b]pyridin-4-yl)-1H-indazole-6-carboxamide]",20
6,"Cc1ccc2[nH]c(C(=O)N[C@]3(c4ccc(OC(F)(F)F)cc4)CCOc4cccnc43)cc2c1 [Example 222, (S)-5-methyl-N-(4-(4-(trifluoromethoxy)phenyl)-3,4-dihydro-2H-pyrano[3,2-b]pyridin-4-yl)-1H-indole-2-carboxamide formate]",2000
7,"O=C(Nc1ccc(Br)nc1)N[C@]1(c2ccc(OC(F)(F)F)c(F)c2)CCOc2cccnc21 [Example 88, (S)-1-(6-bromopyridin-3-yl)-3-(4-(3-fluoro-4-(trifluoromethoxy)phenyl)-3,4-dihydro-2H-pyrano[3,2-b]pyridin-4-yl)urea]",115
8,"O=C(N[C@]1(c2ccc(OC(F)(F)F)cc2)CCOc2cccnc21)c1c[nH]c2ccccc12 [Example 234, (S)-N-(4-(4-(trifluoromethoxy)phenyl)-3,4-dihydro-2H-pyrano[3,2-b]pyridin-4-yl)-1H-indole-3-carboxamide foraiate]",56.8
9,"COC(=O)c1ccc(C(=O)N[C@]2(c3ccc(C(F)(F)F)c(F)c3)CCOc3cccnc32)nc1 [Example 172, (S)-methyl 6-((4-(3-fluoro-4-(trifluoromethyl)phenyl)-3,4-dihydro-2H-pyrano[3,2-b]pyridin-4-yl)carbamoyl) nicotinate]",22
10,"O=C(N[C@]1(c2ccc(OC(F)(F)F)cc2)CCOc2cccnc21)c1ccc2cc[nH]c2c1 [Example 235, (S)-N-(4-(4-(trifluoromethoxy)phenyl)-3,4-dihydro-2H-pyrano[3,2-b]pyridin-4-yl)-1H-indole-6-carboxamide formate]",35.7
11,"COc1ccc(C(=O)N[C@]2(c3ccc(C(F)(F)F)cc3)CCOc3cccnc32)cc1 (single isomer, unassigned) [Example 5]",21
12,"O=C(N[C@]1(c2ccc(C(F)(F)F)cc2)CCOc2cccnc21)c1ccc2[nH]c(=O)oc2c1 (single isomer, unassigned) [Example 20]",10
13,"O=C(N[C@]1(c2ccc(C(F)(F)F)cc2)CCOc2cccnc21)c1ccc(O)cn1 [Example 40, (S)-5-hydroxy-N-(4-(4-(trifluoromethyl)phenyl)-3,4-dihydro-2H-pyrano[3,2-b]pyridin-4-yl)picolinamide]",7
14,"O=C(N[C@]1(c2ccc(OC(F)(F)F)cc2)CCOc2cccnc21)c1ccsc1 [Example 230, (S)-N-(4-(4-(trifluoromethoxy)phenyl)-3,4-dihydro-2H-pyrano[3,2-b]pyridin-4-yl)thiophene-3-carboxamide formate]",20.1
15,"O=C(N[C@]1(c2ccc(C(F)(F)F)cc2)CCOc2cccnc21)c1ccc2cccnc2c1 [Example 56, (S)-N-(4-(4-(trifluoromethyl)phenyl)-3,4-dihydro-2H-pyrano[3,2-b]pyridin-4-yl)quinoline-7-carboxamide]",21
16,"O=C(N[C@]1(c2ccc(OC(F)(F)F)cc2)CCOc2cccnc21)c1n[nH]c2ncccc12 [Example 242, (S)-N-(4-(4-(trifluoromethoxy)phenyl)-3,4-dihydro-2H-pyrano[3,2-b]pyridin-4-yl)-1H-pyrazolo[3,4-b] pyridine-3-carboxamide formate]",5.55
17,"N#Cc1cncc(-c2ccc([C@@]3(NC(=O)c4ccc(F)cc4)CCOc4cccnc43)cc2)c1 [Example 141, (S)-N-(4-(4-(5-cyanopyridin-3-yl)phenyl)-3,4-dihydro-2H-pyrano[3,2-b]pyridin-4-yl)-4-fluorobenzamide]",260
18,"COc1ccc2cc(C(=O)N[C@]3(c4ccc(OC(F)(F)F)cc4)CCOc4cccnc43)cnc2c1 [Example 225, (S)-7-methoxy-N-(4-(4-(trifluoromethoxy)phenyl)-3,4-dihydro-2H-pyrano[3,2-b]pyridin-4-yl)quinoline-3-carboxamide formate]",12
19,"Cn1c(C(=O)N[C@]2(c3ccc(OC(F)(F)F)c(F)c3)CCOc3cccnc32)cnc1Br [Example 180, (S)-2-bromo-N-(4-(3-fluoro-4-(trifluoromethoxy)phenyl)-3,4-dihydro-2H-pyrano[3,2-b]pyridin-4-yl)-1-methyl-1H-imidazole-5-carboxamide]",32
